Experimental data taken from the NIST ThermoML archive (doi:10.1021/je700754k).

How the values were obtained:
[1] = xn = mol fraction of the nth substance listed; settings: 101 kPa, Liquid
[2] = excess molar enthalpy (molar enthalpy of mixing); xn = mol fraction of the nth substance listed; settings: 303.15 K, 101 kPa, Liquid, Calvet calorimetry

CCCCn1cc[n+](C)c1.F[B-](F)(F)F [1-butyl-3-methylimidazolium tetrafluoroborate] + CCO
mass density [kg/m3], [1]
Settings | 293.15 K | 303.15 K | 313.15 K | 323.15 K
x1 = 0.0517 | 854.59 | 846.27 | 837.83 | 829.27
x1 = 0.0918 | 895.67 | 887.54 | 879.27 | 870.9
x1 = 0.1479 | 943.11 | 935.12 | 927.02 | 918.84
x1 = 0.1995 | 980.07 | 972.15 | 964.15 | 956.11
x1 = 0.2518 | 1011.33 | 1003.46 | 995.56 | 987.64
x1 = 0.3228 | 1046.79 | 1039.01 | 1031.22 | 1023.46
x1 = 0.4219 | 1085.81 | 1078.14 | 1070.51 | 1062.91
x1 = 0.5356 | 1120.88 | 1113.35 | 1105.88 | 1098.46
x1 = 0.6244 | 1142.66 | 1135.23 | 1127.86 | 1120.54
x1 = 0.709 | 1160.24 | 1152.89 | 1145.59 | 1138.37
x1 = 0.8295 | 1181.36 | 1174.12 | 1166.93 | 1159.8
x1 = 0.9327 | 1196.33 | 1189.16 | 1182.04 | 1174.97
x1 = 1 | 1204.93 | 1197.83 | 1190.74 | 1183.72

[2]
Settings | excess molar enthalpy [kcal/mol]
x1 = 0.0201 | 0.086
x1 = 0.0573 | 0.204
x1 = 0.1005 | 0.307
x1 = 0.1962 | 0.467
x1 = 0.3371 | 0.591
x1 = 0.4225 | 0.624
x1 = 0.5001 | 0.6
x1 = 0.5874 | 0.545
x1 = 0.6333 | 0.49
x1 = 0.7422 | 0.399
x1 = 0.8291 | 0.277
x1 = 0.9257 | 0.149

CCCCn1cc[n+](C)c1.F[B-](F)(F)F [1-butyl-3-methylimidazolium tetrafluoroborate] + C[N+](=O)[O-]
[1], x1 = 1
Settings | mass density [kg/m3]
293.15 K | 1204.99
303.15 K | 1197.89
313.15 K | 1190.81
323.15 K | 1183.78

CCO [ethanol] + CCCCn1cc[n+](C)c1.COS(=O)(=O)[O-]
[1], x2 = 0
Settings | mass density [kg/m3]
293.15 K | 789.53
303.15 K | 780.94
313.15 K | 772.2
323.15 K | 763.28
